Measurements reported in paper PMC5136619, “Crystal structure of bacterial haem importer complex in the inward-facing conformation” (Nature Communications, 2016).

Target: T1, BhuUV-T (Burkholderia cenocepacia, UniProt B4EKB5)
T1 construct: gene hmuV; His8-BhuU full length with BhuV, plus haem-free BhuT 40-311 (GST cut off by PreScission) in ATPase assay; GFP-tagged BhuT in pull-down; heteropentamer; with Heme ABC transporter permease BhuU
Assay: His-tag pull-down, release of GFP-BhuT from immobilized BhuUV
Format: binding
Conditions: 1 mM AMP–PNP, 1 mM MgCl2, 0.15% DM, pH 7.5, on ice; nucleotide site of BhuV

T1 sequence (B4EKB3 entry or part of it): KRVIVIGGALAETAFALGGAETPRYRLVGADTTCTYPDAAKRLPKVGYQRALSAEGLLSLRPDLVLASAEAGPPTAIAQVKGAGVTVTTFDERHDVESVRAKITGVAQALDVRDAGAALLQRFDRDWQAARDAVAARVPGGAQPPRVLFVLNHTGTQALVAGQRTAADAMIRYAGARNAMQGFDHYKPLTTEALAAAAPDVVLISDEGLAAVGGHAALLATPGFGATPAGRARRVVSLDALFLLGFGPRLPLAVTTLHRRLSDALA
T1 sequence (B4EKB4 entry or part of it, further chain): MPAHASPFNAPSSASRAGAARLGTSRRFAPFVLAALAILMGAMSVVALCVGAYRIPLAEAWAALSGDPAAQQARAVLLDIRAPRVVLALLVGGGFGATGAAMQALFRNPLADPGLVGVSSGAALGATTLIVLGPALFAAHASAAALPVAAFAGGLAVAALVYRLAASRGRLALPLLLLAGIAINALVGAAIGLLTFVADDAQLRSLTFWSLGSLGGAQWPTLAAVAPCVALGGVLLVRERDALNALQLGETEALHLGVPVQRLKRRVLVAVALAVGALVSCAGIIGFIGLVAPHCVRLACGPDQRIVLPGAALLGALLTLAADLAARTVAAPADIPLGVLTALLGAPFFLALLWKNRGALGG
T1 sequence (B4EKB5 entry or part of it): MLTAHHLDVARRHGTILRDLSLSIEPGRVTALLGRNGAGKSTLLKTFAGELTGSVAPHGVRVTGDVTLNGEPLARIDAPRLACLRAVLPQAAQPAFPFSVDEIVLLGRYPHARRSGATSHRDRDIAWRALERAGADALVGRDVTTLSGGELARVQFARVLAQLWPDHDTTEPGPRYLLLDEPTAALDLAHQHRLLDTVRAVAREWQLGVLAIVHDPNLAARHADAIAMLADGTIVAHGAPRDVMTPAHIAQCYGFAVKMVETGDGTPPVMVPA

In the case of `Nc1ncnc2c1ncn2[C@@H]1O[C@H](COP(=O)(O)OP(=O)(O)NP(=O)(O)O)[C@@H](O)[C@H]1O` [AMP–PNP], the “His-tag pull-down, release of GFP-BhuT from immobilized BhuUV” value is reported as “both ATP and AMP–PNP caused the dissociation of GFP-BhuT from BhuUV”.
